Measurements reported in article PMC9917132, “Tenebrio molitor as a Simple and Cheap Preclinical Pharmacokinetic and Toxicity Model” (International Journal of Molecular Sciences, 2023).
Where two headings read alike, the source gives them in different places.

Columns and labels:
Rats = details: cited from earlier work; for LD50: reported
[1] = Acute toxicity (LD50) in adult T. molitor Coleoptera (TMC) after injection in the hemocoel; format: in vivo, Tenebrio molitor; details: Tenebrio molitor, in vivo, other: injection in the hemocoel; 1 µL in 100% DMSO injected in hemocoel; mortality recorded daily for 7 days; highest dose 2000 mg/kg
Description: (§1) The literature was carefully studied to identify the starting dose of a panel of drugs; however, when no data were available, the protocol described in Figure 1 was adopted, using 1 TMC and starting from the dose of 200 mg/kg.
(§2) The protocol depicted in Figure 2 has been adopted to determine LD50, starting from the opportune dose determined as described above. A panel of 20 drugs available on the market, including antivirals, antibiotics and the representative drugs for several pharmaceutical classes, was analyzed (Table 2).
(§3) Figure 2 Flowchart for LD50 determination. Starting from the opportune initial dose, LD50 was determined by changing the dose based on results and increasing the number of […] for final determinations. GHS cat.: Globally Harmonized System category. The numbers on the circles represent the number of deaths in exemplars.
(§4) TMC were randomly selected for toxicity assessment. TMC older than 3 days were discarded.
(§5) Acute toxicity was determined following the Organization for Economic Cooperation and Development (OECD) guidelines for acute toxicity of chemicals. All the available information on the test substance was considered to select the toxic dose of test compounds. Data were collected considering LD50 already reported for humans, rats and mice or, when possible, insects (e.g., Galleria mellonella). The initial dose, expressed in mg/kg, was calculated as the lowest LD50 reported in the literature. When no data were found in the literature, the starting dose of 200 mg/kg was used and the range-finding study was conducted with 1 TMC, by adapting OECD guidelines (Figure 1). To perform LD50 calculation study, 5 TMC were injected with the selected dose, and mortality was recorded daily for 7 days. Each experiment included 1 control group treated with DMSO. […] If 1 or less TMC died, the experiment was performed with a higher dose. If 2 or 3 TMC died, the experiment was repeated by re-testing the initial dose with 10 TMC. […] The experiment continued until a toxic dose was determined.

[2] = Preliminary in vivo PK in TMC (hemolymph analysis by HPLC); details: single dose equal to half the LD50 (62.5 or 150 mg/kg); hemolymph at 0, 1, 2, 4, 8, 24 hpt
[3] = cited from earlier work; for T ½ / Vd: PK literature data
[4] = design: method as in doi:10.1201/9780429460418; details: literature data; cited from earlier work
Mice = details: cited from earlier work
[5] = NADPH-generating system, 37 °C, pH 7.4
Description: To characterize their phase I metabolism, the drugs were incubated with human or rat microsomes and their main metabolites were determined by HPLC-MS analysis and compared to data already reported (Table 3).
After centrifuging the reaction mixtures, the parent drug and its metabolites were characterized by LC-UV-MS [38].
HPLC analysis was performed using an Agilent 1100 LC/MSD VL system (G1946C) (Agilent Technologies, Palo Alto, CA) comprising a vacuum solvent degassing unit, a binary high-pressure gradient pump and a 1100 series UV detector; a 1100 MSD model VL benchtop mass spectrometer was used to perform the chromatographic analysis. Chromatographic separation was obtained using a Phenomenex Kinetex C18-100 Å column (100–4.6 mm, 5 μm particle size). […] The injection volume was 20 μL and the flow rate was 0.4 mL min^−1. The orthogonal spray API-ES was installed on the Agilent 1100 series mass spectra-detection single-quadrupole instrument (Agilent Technologies, Palo Alto, CA, USA). N2 was used as a nebulizing and drying gas. The vaporization temperature, capillary voltage, fragmentor voltage, drying gas flow and pressure were set at […], respectively. […] The LC-ESI-MS measurements were performed by operating in either the positive or negative ion mode. Spectra were acquired over the scan range m/z 100–1500 using a step size of 0.1 u. […]

[6] = design: method as in doi:10.1201/9780429460418; details: literature data; cited from earlier work; remark: listed apart in the source
[7] = test system: adult exemplars of T. molitor Coleoptera; test: Toxicity of vehicles in adult T. molitor Coleoptera (survival, vitals monitored daily for seven days); format: in vivo, Tenebrio molitor; details: for Survival %: groups of six TMC, seven days; for tolerability: 1 µL per TMC (lower dose)
Description: Considering the limited volume of hemolymph, we considered injecting 1 or 2 µL of vehicles per TMC. The most common vehicles used for i.v. and i.p. studies were administered to experimental groups of six TMC and vitals were monitored daily for seven days. Results are reported in Table 1, expressed as survival %.
TMC were randomly selected for toxicity assessment. TMC older than 3 days were discarded. Compounds were solubilized in the opportune vehicle and injected on the hemocoel using a Hamilton syringe, (7001 KH, volume 1 µL, needle size 25 s, cone tip), by administering 1 µL of compound on the TMC dorsal side, between the pronotum and elytron.

guinea pigs = details: i.v., reported; cited from earlier work
dogs = details: i.v., reported; cited from earlier work
Tenebrio molitor = test: Acute toxicity (LD50) in adult T. molitor Coleoptera (TMC) after injection in the hemocoel; format: in vivo; details: dose of 2000 mg/kg
Description: as §1, §2, §3, §4, §5

[8] = design: method as in PMID 33649113; details: oral administration; cited from earlier work
[9] = in some people, depending on age and state of health

Compound | LD50 Rats ip (Rats) [mg/kg] | LD50 at 7 days [1] [mg/kg] | LD50 Mice ip (Mice) [mg/kg] | LD50 Mice iv (Mice) [mg/kg] | LD50 Rats iv (Rats) [mg/kg] | other results
CN(C)CCCN1c2ccccc2Sc2ccc(Cl)cc21 [Chlorpromazine] | 137 | 300 | 14 | 106 | – | elimination / metabolism of parent drug in TMC hemolymph [2]: extensively metabolized; T ½ [3]: 8 to 35 h; Vd [3]: 7 to 20 L/kg; t ½ (prolonged) [3, 9]: 60 h; t ½ (reduced) [3, 9]: 2 h; LogS [4]: −5.01; Stability % Rats Microsomes ([5]; rat liver microsomes 0.2 mg/mL, 30 min): 77.99%; Protein Binding [6]: 95–98%
CCO [EtOH] | – | – | – | – | – | LD50 (Rats; rats, route not given): 1400 mg/kg; Survival % ([7]; 1 µL injected per TMC): 100%; tolerability [7]: well tolerated; Survival % ([7]; 2 µL injected per TMC): 50%
CC(C(=O)O)c1cccc(C(=O)c2ccccc2)c1 (stereo not shown) [Ketoprofen] | 80 | – | 300 | – | 350 | –
COc1ccc2c3c1O[C@H]1[C@@H](O)C=C[C@H]4[C@@H](C2)N(C)CC[C@@]341 [Codeine] | 100 | 50 | 60 | – | 75 | –
COCCc1ccc(OCC(O)CNC(C)C)cc1 (stereo not shown) [Metoprolol] | – | 500 | >200 | 62 | 71.9 | –
O=C(O)c1ccccc1O [Salicylic acid] | – | – | 300 | – | – | –
CN/C(=N/CCSCc1nc[nH]c1C)NC#N [Cimetidine] | 328 | 750 | 306 | 150 | 326 | –
Nc1ccc(S(=O)(=O)Nc2ncccn2)cc1 [Sulfadiazine] | 446 | 300 | 750 | 180 | 880 | –
Cc1cccc(C)c1NC(=O)C1CCCCN1C (stereo not shown) [Mepivacaine] | – | 125 | 135 | 35 | 30 | –
COc1cc(Cc2cnc(N)nc2N)cc(OC)c1OC [Trimethoprim] | 500 | 300 | 400 | 132 | – | –
Cc1onc(-c2ccccc2Cl)c1C(=O)N[C@@H]1C(=O)N2[C@@H]1SC(C)(C)[C@@H]2C(=O)O [Cloxacillin] | – | 750 | – | – | 1660 | –
CC(=O)Nc1ccc(O)cc1 [Paracetamol] | – | 125 | 340 | – | – | –
CC1(C)S[C@@H]2[C@H](NC(=O)[C@H](N)c3ccc(O)cc3)C(=O)N2[C@H]1C(=O)O [Amoxicillin] | 2870 | 750 | – | – | – | –
CC(C)=O [Acetone] | – | – | – | – | – | Survival % ([7]; 1 µL injected per TMC): 100%; tolerability [7]: well tolerated; Survival % ([7]; 2 µL injected per TMC): 16.6%
C[S+](C)[O-] [DMSO] | – | – | – | – | – | LD50 (guinea pigs): 6500 mg/kg; LD50 (Rats; i.v., rats): 5400 mg/kg; LD50 (Mice; i.v., mice, reported): 20600 mg/kg; Survival % ([7]; 1 µL injected per TMC): 100%; tolerability [7]: well tolerated; Survival % ([7]; 2 µL injected per TMC): 0%; lethality ([7]; 2 µL per TMC): 100%; LD50 (dogs): 2500 mg/kg
CC(C)C(=O)OC[C@H]1O[C@@H](n2ccc(NO)nc2=O)[C@H](O)[C@@H]1O [Molnupiravir] | – | > 2000 | – | – | – | toxicity at the highest dose (Tenebrio molitor): absence of toxicity; LD50 [8]: > 800 mg/kg
Nc1nc2c(ncn2COCCO)c(=O)[nH]1 [Acyclovir] | – | > 2000 | 1000 | – | – | LD50 (dose reported by Tucker et al.) (Rats; rats): greater than 650 mg/kg
O=C(N[C@H](CO)[C@H](O)c1ccc([N+](=O)[O-])cc1)C(Cl)Cl [Chloramphenicol] | – | 300 | – | 171 | – | –
NC(=O)N1c2ccccc2C=Cc2ccccc21 [Carbamazepine] | 158 | 125 | 114 | – | – | elimination / metabolism of parent drug in TMC hemolymph [2]: decreased after 4h; T ½ [3]: 5 h; Vd [3]: 0.8 to 1.9 L/kg; Stability % Human Microsomes ([5]; human liver microsomes 0.2 mg/mL, 60 min): 77.54%; Protein Binding [6]: 70–80%
